Measured values: patent US7671045B2, “17-phosphorous steroid derivatives useful as progesterone receptor modulators” (Janssen Pharmaceutica N.V., priority 2006, dated 2010)
pIC50: −log10 of the molar value. Where two headings read alike, the source gives them in different places.

Key:
[1] = system: T47D human breast cancer cells; assay: Alkaline phosphatase assay in human breast cancer cell line T47D; assay type: cell-based; settings: for IC50: T47D, 24 h, read-out: T47D IC50 (nM); for pIC50: T47D cells, alkaline phosphatase readout, 24 h with test compound, read-out: T47D IC50
Description: Alkaline Phosphatase Assay in Human Breast Cancer Cell Line T47D
T47D human breast cancer cells were grown in RPMI medium without phenol red (Invitrogen) containing 10% (v/v) heat-inactivated fetal bovine serum (FBS; Hyclone), 1% (v/v) penicillin-streptomycin (Invitrogen), 1% (w/v) glutamine (Invitrogen), and […] insulin (Sigma). Incubation conditions were 37° C. in a humidified 5% (v/v) carbon dioxide environment.
The cells were plated in 96-well tissue culture plates at 10,000 cells per well in assay medium [RPMI medium without phenol red (Invitrogen) containing 5% (v/v) charcoal-treated FBS (Hyclone) and 1% (v/v) penicillin-streptomycin (Invitrogen)]. Two days later, the medium was decanted and test compound or control were added at a final concentration of 0.1% (v/v) dimethyl sulfoxide in fresh assay medium. Twenty-four hours later, an alkaline phosphatase assay was performed using a SEAP kit (BD Biosciences Clontech, Palo Alto, Calif.). Briefly, the medium was decanted and the cells were fixed for 30 minutes at room temperature with 5% (v/v) formalin (Sigma). The cells were washed once with room temperature Hank's buffered saline solution (Invitrogen). Equal volumes (0.05 mL) of 1× Dilution Buffer, Assay Buffer and 1:20 substrate/enhancer mixture were then added. After 1 hour incubation at room temperature in the dark, the lysate was transferred to a white 96-well plate (Dynex) and luminescence was read using a LuminoSkan Ascent (Thermo Electron, Woburn, Mass.).

[2] = system: A549 Human lung carcinoma cells; assay: Transient transfection and Steady Glo luciferase assay in A549 cells with dexamethasone challenge; assay type: cell-based; settings: for IC50: A549, 24 h, read-out: A549 IC50 (nM); for pIC50: transfected A549 cells, luciferase readout, challenged with dexamethasone (glucocorticoid agonist), 24 h, read-out: A549 IC50
Description: Transient Transfection and Steady Glo Luciferase Assay
A549 Human lung carcinoma cells were grown in F-12K Nutrient Mixture containing 10% (v/v) fetal bovine serum (FBS; Invitrogen), 2 mM glutamine and 0.15% […] (Invitrogen)
A549 cells were split 1 to 3 in 175 cm tissue culture flask. The cells were incubated at 37° C. in CO2 incubator until the cells were 95% confluent (typically 24-30 hours).
The following solutions were prepared in sterile tubes: (a) Solution A: 1.5 μg/ml of DNA in 8.5 ml OPTI-MEM I Reduced Serum Medium. (GIBCO cat# 31985) and (b) Solution B: 6 μl/ml of DMRIE-C Reagent into […] OPTI-MEM I. The two solutions were combined and mixed gently, then incubated at room temperature for 40 minutes.
The A549 cells prepared above were washed with […] of OPTI-MEM I. The medium was removed and 17 ml of the lipid-DNA complex solution was overlayed onto cells. The cells ere then incubated for 16 h at 37° C. in CO2 incubator. The DNA-containing medium was removed and 30 ml of growth medium was added. (5% Charcoal treated FBS) After 5-6 h, the cells were seeded in a 96 well plate and the cells incubated overnight at 37° C. in CO2 incubator.
To each well was then added 5 μl of test compounds and the cells incubated at 37° C. for 10 min. 5 μL of dexamathasone (CAS [50-02-2]), a glucocorticoid agonist, solution was then added to each well for challenger and the cells incubated at 37° C. in CO2 incubator for 24 h. 100 μl of Luc-assay buffer was then added into each cell well and the cells incubated for 30 min at room temperature. A 150 μL sample from each well was then transferred into a DYNEX Microlitel plate and read on Top-counter.

Compound	IC50 [1]	IC50 [2]	pIC50 [1]	pIC50 [2]
CCOP(=O)(OCC)c1ccc([C@H]2C[C@]3(C)C(=O)CC[C@H]3[C@@H]3CCC4=CC(=O)CCC4=C32)cc1 [Compound 1]	> 1000 nM	254 nM	–	–
C[C@]12C[C@H](c3ccc(P(C)(C)=O)cc3)C3=C4CCC(=O)C=C4CC[C@H]3[C@@H]1CCC2=O [Compound 2]	–	–	< 6.00	< 6.15
C=C1CCO[C@]12CC[C@H]1[C@@H]3CCC4=CC(=O)CCC4=C3[C@@H](c3ccc(P(=O)(OCC)OCC)cc3)C[C@@]12C [Compound 3]	12 nM	238 nM	–	–
C=C1CCO[C@]12CC[C@H]1[C@@H]3CCC4=CC(=O)CCC4=C3[C@@H](c3ccc(P(C)(C)=O)cc3)C[C@@]12C [Compound 4]	–	–	8.52	7.18
C[C@]12C[C@H](c3ccc(P(C)(C)=O)cc3)C3=C4CCC(=O)C=C4CC[C@H]3[C@@H]1CC[C@@]2(O)CC#N [Compound 6]	–	–	< 6.00	< 5.52
C[C@]12C[C@H](c3ccc(P(C)(C)=O)cc3)C3=C4CCC(=O)C=C4CC[C@H]3[C@@H]1CC[C@@]2(O)C(F)(F)C(F)(F)F [Compound 7]	–	–	8.08	6.21
CCOP(=O)(OCC)c1ccc([C@H]2C[C@@]3(C)[C@@H](CC[C@@]3(O)C(F)(F)C(F)(F)F)[C@@H]3CCC4=CC(=O)CCC4=C32)cc1 [Compound 8]	170 nM	168 nM	–	–
C=CC[C@]1(O)CC[C@H]2[C@@H]3CCC4=CC(=O)CCC4=C3[C@@H](c3ccc(P(C)(C)=O)cc3)C[C@@]21C [Compound 9]	–	–	6.69	< 6.00
C=C(C)[C@]1(O)CC[C@H]2[C@@H]3CCC4=CC(=O)CCC4=C3[C@@H](c3ccc(P(C)(C)=O)cc3)C[C@@]21C [Compound 10]	–	–	7.74	< 5.52
C=C(C)[C@]1(O)CC[C@H]2[C@@H]3CCC4=CC(=O)CCC4=C3[C@@H](c3ccc(P(=O)(OCC)OCC)cc3)C[C@@]21C [Compound 11]	51.3 nM	66.3 nM	–	–
C=CC[C@]1(O)CC[C@H]2[C@@H]3CCC4=CC(=O)CCC4=C3[C@@H](c3ccc(P(=O)(OCC)OCC)cc3)C[C@@]21C [Compound 13]	170 nM	30.2 nM	–	–
COP(=O)(OC)c1ccc([C@H]2C[C@]3(C)C(=O)CC[C@H]3[C@@H]3CCC4=CC(=O)CCC4=C32)cc1 [Compound 15]	8.8 nM	> 3000 nM	–	–
C=C1CCO[C@]12CC[C@H]1[C@@H]3CCC4=CC(=O)CCC4=C3[C@@H](c3ccc(P(=O)(OC)OC)cc3)C[C@@]12C [Compound 16]	8.3 nM	230 nM	–	–
C=C1CCO[C@]12CC[C@H]1[C@@H]3CCC4=CC(=O)CCC4=C3[C@@H](c3ccc(P(=O)(O)OC)cc3)C[C@@]12C [Compound 17]	> 1000 nM	> 3000 nM	–	–
CCOP(C)(=O)c1ccc([C@H]2C[C@]3(C)C(=O)CC[C@H]3[C@@H]3CCC4=CC(=O)CCC4=C32)cc1 (stereo partly shown) [Compound 21]	–	> 3000 nM	–	–
C=C1CCO[C@]12CC[C@H]1[C@@H]3CCC4=CC(=O)CCC4=C3[C@@H](c3ccc(P(C)(=O)O)cc3)C[C@@]12C [Compound 22, 19,24-Dinorchola-4,9,20-trien-3-one, 1723-epoxy-11-[4-(hydroxy-methyl-phosphinoyl)phenyl]-(11β,17α)-(9Cl)]	–	–	< 6.00	< 5.52
C=C1CCO[C@]12CC[C@H]1[C@@H]3CCC4=CC(=O)CCC4=C3[C@@H](c3ccc(P4(=O)OCC(C)(C)CO4)cc3)C[C@@]12C [Compound 23, 19,24-Dinorchola-4,9,20-trien-3-one, 17,23-epoxy-11-[4-(5,5-Dimethyl-2-oxo-2λ^5-[1,3,2]dioxaphosphinan-2-yl)-phenyl]-, (11β,17α)-(9Cl)]	–	–	7.54	7.19

Compound	IC50 [1]	IC50 [2]	pIC50 [1]	pIC50 [2]
C=CC[C@]1(O)CC[C@H]2[C@@H]3CCC4=CC(=O)CCC4=C3[C@@H](c3ccc(P(=O)(c4ccccc4)c4ccccc4)cc3)C[C@@]21C [Compound 24]	–	–	6.12	7.32
CCOP(=O)(OCC)c1ccc([C@H]2C[C@@]3(C)[C@@H](CC[C@@]3(O)C#Cc3ccccc3)[C@@H]3CCC4=CC(=O)CCC4=C32)cc1 [Compound 25]	38.2 nM	83.8 nM	–	–
CC#C[C@]1(O)CC[C@H]2[C@@H]3CCC4=CC(=O)CCC4=C3[C@@H](c3ccc(P(=O)(OCC)OCC)cc3)C[C@@]21C [Compound 26]	125 nM	41.5 nM	–	–
CC#C[C@]1(O)CC[C@H]2[C@@H]3CCC4=CC(=O)CCC4=C3[C@@H](c3ccc(P(=O)(c4ccccc4)c4ccccc4)cc3)C[C@@]21C [Compound 27]	–	–	6.42	7.78
C/C=C/C[C@]1(O)CC[C@H]2[C@@H]3CCC4=CC(=O)CCC4=C3[C@@H](c3ccc(P(=O)(c4ccccc4)c4ccccc4)cc3)C[C@@]21C [Compound 28]	–	–	6.18	6.89
C/C=C/C[C@]1(O)CC[C@H]2[C@@H]3CCC4=CC(=O)CCC4=C3[C@@H](c3ccc(P(=O)(OCC)OCC)cc3)C[C@@]21C [Compound 29]	160 nM	225 nM	–	–
C[C@]12C[C@H](c3ccc(P(=O)(c4ccccc4)c4ccccc4)cc3)C3=C4CCC(=O)C=C4CC[C@H]3[C@@H]1CC[C@@]2(O)C#Cc1ccccc1 [Compound 30]	–	–	6.56	7.03
COP(=O)(OC)c1ccc([C@H]2C[C@@]3(C)[C@@H](CC[C@@]3(O)C#Cc3ccccc3)[C@@H]3CCC4=CC(=O)CCC4=C32)cc1 [Compound 31]	7.47 nM	130 nM	–	–
C[C@]12C[C@H](c3ccc(P(=O)(OCC(F)(F)F)OCC(F)(F)F)cc3)C3=C4CCC(=O)C=C4CC[C@H]3[C@@H]1CCC2=O [Compound 32]	> 1000 nM	217 nM	–	–
C[C@]12C[C@H](c3ccc(P(=O)(Oc4ccccc4)Oc4ccccc4)cc3)C3=C4CCC(=O)C=C4CC[C@H]3[C@@H]1CCC2=O [Compound 33]	–	–	< 6.00	6.66
C[C@]12C[C@H](c3ccc(P(=O)(OCc4ccccc4)OCc4ccccc4)cc3)C3=C4CCC(=O)C=C4CC[C@H]3[C@@H]1CCC2=O [Compound 35]	–	–	6.01	6.02
C=C1CCO[C@]12CC[C@H]1[C@@H]3CCC4=CC(=O)CCC4=C3[C@@H](c3ccc(P(=O)(c4ccccc4)c4ccccc4)cc3)C[C@@]12C [Compound 36, 19,24-Dinorchola-4,9,20-trien-3-one, 17,23-epoxy-11-[4-(diphenyl-phosphinoyl)-phenyl]-, (11β,17α)-(9Cl)]	–	–	7.35	6.79
C=C1CCO[C@]12CC[C@H]1[C@@H]3CCC4=CC(=O)CCC4=C3[C@@H](c3ccc(P(=O)(Oc4ccccc4)Oc4ccccc4)cc3)C[C@@]12C [Compound 37]	–	–	8.48	7.46
C=C1CCO[C@]12CC[C@H]1[C@@H]3CCC4=CC(=O)CCC4=C3[C@@H](c3ccc(P(=O)(OCC(F)(F)F)OCC(F)(F)F)cc3)C[C@@]12C [Compound 38, 19,24-Dinorchola-4,9,20-trien-3-one, 17,23-epoxy-11-[4-[Bis-(2,2,2-trifluoro-ethoxy)-phosphoryl]-phenyl]-, (11β,17α)-(9Cl)]	–	–	7.53	6.85
C=C1CCO[C@]12CC[C@H]1[C@@H]3CCC4=CC(=O)CCC4=C3[C@@H](c3ccc(P(=O)(c4ccc(Cl)cc4)c4ccc(Cl)cc4)cc3)C[C@@]12C [Compound 39, 19,24-Dinorchola-4,9,20-trien-3-one, 17,23-epoxy-11-[4-[Bis-(4-chloro-phenyl)-phosphinoyl]-phenyl]-, (11β,17α)-(9Cl)]	–	–	7.70	6.84
CCOP(=O)(C#C[C@]1(O)CC[C@H]2[C@@H]3CCC4=CC(=O)CCC4=C3[C@@H](c3ccc(N(C)C)cc3)C[C@@]21C)OCC [Compound 101]	1.3 nM	> 100 nM	–	–
CN(C)c1ccc([C@H]2C[C@@]3(C)[C@@H](CC[C@@]3(O)C#CP(C)(C)=O)[C@@H]3CCC4=CC(=O)CCC4=C32)cc1 [Compound 102]	–	–	8.14	7.15
